Entries after “also recorded” stand apart in the source; their conditions may differ. Like-named read-outs stand apart in the source and are kept apart here.
How the values were obtained:
[1] = test system: patients with HR+/HER2− advanced breast cancer; assay: MONALEESA-7 adverse events; format: in vivo; settings: adverse event of special interest
[2] = test system: HR+/HER2− advanced breast cancer; format: in vivo, patients; settings: for Median PFS: updated analysis
plasma estradiol = assay: Plasma estradiol concentration, baseline vs cycle 3 day 15; format: in vivo, patients
[3] = test system: HR+/HER2− advanced breast cancer; settings: cited from earlier work
[4] = Steady-state plasma pharmacokinetics; format: in vivo, patients
[5] = patients less than 40 years of age

Structure (SMILES): CN(C)C(=O)c1cc2cnc(Nc3ccc(N4CCNCC4)cn3)nc2n1C1CCCC1 [Ribociclib, ribociclib]
- Hepatobiliary toxicity, grade 3 or 4 [1]: 12%
- Neutropenia, grade 3 or 4 [1]: 65%
- Prolonged QT interval, grade 3 or 4 [1]: 2%
- mOS (median overall survival) ([2]; Age: <40 years): 51.3 months
- mOS (median overall survival) ([2]; Age: ≥40 years): 58.8 months
- Increase in survival over the MONALEESA-7 placebo arm ([2]; All patients): 22%
- Kaplan–Meier estimated OS at 48 months (survival rate at 4 years) ([2]; All patients): 60%
- Median chemotherapy-free survival (CFS) ([2]; All patients): 42.4 months
- PFS2 HR (95% CI) vs placebo ([2]; All patients): 0.68
- PFS2 Median ([2]; All patients): 44.2 mo
- Patients who had died at data cut-off ([2]; All patients): 42%
- Patients who received chemotherapy as a subsequent therapy at any time ([2]; All patients): 43%
- Patients with disease progression on subsequent therapy or death (PFS2 events) ([2]; All patients): 53%
- Patients with receipt of chemotherapy or death ([2]; All patients): 57%
- Survival rate at 54 months ([2]; All patients): 53%
- Improvement in OS over ET alone ([2]; All patients, 58.7 vs 48.0 months): 10.7 months
- mOS (median overall survival) ([2]; All patients, median follow-up 53.5 months): 58.7 months
- mOS (median overall survival) ([2]; Chemotherapy (metastatic): Yes): 47.2 months
- mOS (median overall survival) ([2]; Disease-free interval: De novo): not reached
- mOS (median overall survival) ([2]; Endocrine combination partner: NSAI and goserelin): 58.7 months
- mOS (median overall survival) ([2]; Endocrine combination partner: Tamoxifen and goserelin): not estimable
- Patients who died ([2]; Patients receiving an NSAI): 43%
- Patients who died ([2]; Patients receiving tamoxifen): 39%
- Delay in chemotherapy vs placebo, without censoring ([2]; difference in median chemotherapy-free survival): 16.0 month
- Delay in chemotherapy vs placebo, censoring for death ([2]; difference in median time to first chemotherapy): 14.1 month
- Median time to first chemotherapy (TTC) ([2]; in vivo): 50.9 months
- Duration of first subsequent antineoplastic therapy after discontinuation of study treatment ([2]; overall): 7.5 months
- Reduction in the risk of death [2, 5]: 35%
- Median PFS [2, 5]: 29.7 months
- Median PFS ([2]; patients ≥40 years of age): 26.4 months
- Patients with estradiol below the minimum detectable limit (0.5 pg/mL) (plasma estradiol; 86 of 90 patients): 96%
- Mean percentage decrease in plasma estradiol concentration compared with baseline (plasma estradiol; patients who received an NSAI): 89%
- Median OS, prespecified second interim (final) analysis ([3]; median follow-up 34.6 months): not reached
- Median PFS (primary endpoint) ([3]; primary analysis): 23.8 months
- Drug–drug interaction between ribociclib and NSAI partner ([4]; in vivo): No drug–drug interactions; also recorded: no apparent drug–drug interaction

Structure (SMILES): CC/C(=C(\c1ccccc1)c1ccc(OCCN(C)C)cc1)c1ccccc1 [Tamoxifen, tamoxifen]
- Exposure with ribociclib versus placebo ([4]; tamoxifen 20 mg): approximately 2 times
